# Results from patent US20260007681A1, “INDOLE DERIVATIVES AS ESTROGEN RECEPTOR DEGRADERS” (REGENTS OF THE UNIVERSITY OF MICHIGAN, priority 2022, published 2026).
# Target: ER (Homo sapiens (Human), UniProt P03372)
# Assay: Western blot analysis (Compounds B1-B278)
# Type: cell-based
# Conditions: ER degradation by traditional Western blot; DC50 classes
# Procedure, shortened: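 Compound-treated cells were lysed in RIPA buffer (Tris.HCl pH 7.6, 1% NP-40, deoxycholate, 0.1% SDS) with protease inhibitors; equal protein was resolved on 10% SDS-PAGE, transferred to PVDF and immunoblotted. Band intensities were quantified and normalized to GAPDH.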
# Chain of ER (P03372 whole entry): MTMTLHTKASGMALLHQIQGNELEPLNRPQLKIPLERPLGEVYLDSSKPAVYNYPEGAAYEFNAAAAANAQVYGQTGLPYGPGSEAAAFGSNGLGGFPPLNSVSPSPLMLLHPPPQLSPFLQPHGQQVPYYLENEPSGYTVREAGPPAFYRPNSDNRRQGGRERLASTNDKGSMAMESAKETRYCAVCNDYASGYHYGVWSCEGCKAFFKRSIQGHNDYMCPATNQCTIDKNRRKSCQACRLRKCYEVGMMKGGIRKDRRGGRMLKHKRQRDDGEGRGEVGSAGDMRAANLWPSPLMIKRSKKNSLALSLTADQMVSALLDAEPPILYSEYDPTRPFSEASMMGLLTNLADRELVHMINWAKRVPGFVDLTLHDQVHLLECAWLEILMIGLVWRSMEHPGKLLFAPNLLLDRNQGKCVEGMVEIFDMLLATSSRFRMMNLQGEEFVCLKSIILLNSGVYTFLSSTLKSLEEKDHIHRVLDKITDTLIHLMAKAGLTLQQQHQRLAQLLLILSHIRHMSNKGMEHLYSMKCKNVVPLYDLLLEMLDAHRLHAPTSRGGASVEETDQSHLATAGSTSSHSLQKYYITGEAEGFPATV
row,Compound,Traditional Western Degradation Potency
1,"C[C@@H]1Cc2c([nH]c3ccccc23)[C@@H](c2ccc(C3CCC(C(=O)N4CCC(N5Cc6cc7c(cc6C5)C(=O)N(C5CCC(=O)NC5=O)C7=O)CC4)CC3)nc2)N1CC(F)F (stereo partly drawn) [Compound B238, 6-(1-(4-(5-((1R,3R)-2-(2,2-difluoroethyl)-3-methyl-2,3,4,9-tetrahydro-1H-pyrido[3,4-b]indol-1-yl)pyridin-2-yl)cyclohexane-1-carbonyl)piperidin-4-yl)-2-(2,6-dioxopiperidin-3-yl)-6,7-dihydropyrrolo[3,4-f]isoindole-1,3(2H,5H)-dione]",C (“C”: >100 nM)
2,"C[C@@H]1Cc2c([nH]c3ccccc23)[C@@H](c2ccc(C3CCC(C(=O)N4CCC(N5Cc6cc7c(cc6C5)C(=O)N(C5CCC(=O)NC5=O)C7=O)CC4)CC3)c(F)c2)N1CC(F)F (stereo partly drawn) [Compound B239, 6-(1-(4-(4-((1R,3R)-2-(2,2-difluoroethyl)-3-methyl-2,3,4,9-tetrahydro-1H-pyrido[3,4-b]indol-1-yl)-2-fluorophenyl)cyclohexane-1-carbonyl)piperidin-4-yl)-2-(2,6-dioxopiperidin-3-yl)-6,7-dihydropyrrolo[3,4-f]isoindole-1,3(2H,5H)-dione]",B (“B”: 10-100 nM)
3,"C[C@@H]1Cc2c([nH]c3ccccc23)[C@@H](c2c(F)cc(C3=CCC4(CC3)CCN(C(=O)CN3Cc5cc6c(cc5C3)C(=O)N(C3CCC(=O)NC3=O)C6=O)CC4)cc2F)N1CC(F)F (stereo partly drawn) [Compound B240, 6-(2-(9-(4-((1R,3R)-2-(2,2-difluoroethyl)-3-methyl-2,3,4,9-tetrahydro-1H-pyrido[3,4-b]indol-1-yl)-3,5-difluorophenyl)-3-azaspiro[5.5]undec-8-en-3-yl)-2-oxoethyl)-2-(2,6-dioxopiperidin-3-yl)-6,7-dihydropyrrolo[3,4-f]isoindole-1,3(2H,5H)-dione]",B (“B”: 10-100 nM)
4,"C[C@@H]1Cc2c([nH]c3ccccc23)[C@@H](c2ccc(C3=CCC4(CC3)CCN(C(=O)CN3Cc5cc6c(cc5C3)C(=O)N(C3CCC(=O)NC3=O)C6=O)CC4)cc2F)N1CC(F)F (stereo partly drawn) [Compound B241, 6-(2-(9-(4-((1R,3R)-2-(2,2-difluoroethyl)-3-methyl-2,3,4,9-tetrahydro-1H-pyrido[3,4-b]indol-1-yl)-3-fluorophenyl)-3-azaspiro[5.5]undec-8-en-3-yl)-2-oxoethyl)-2-(2,6-dioxopiperidin-3-yl)-6,7-dihydropyrrolo[3,4-f]isoindole-1,3(2H,5H)-dione]",C (“C”: >100 nM)
5,"C[C@@H]1Cc2c([nH]c3ccccc23)[C@@H](c2ccc(C3CCC4(CC3)CCN(C(=O)CN3Cc5cc6c(cc5C3)C(=O)N(C3CCC(=O)NC3=O)C6=O)CC4)cc2F)N1CC(F)F (stereo partly drawn) [Compound B243, 6-(2-(9-(4-((1R,3R)-2-(2,2-difluoroethyl)-3-methyl-2,3,4,9-tetrahydro-1H-pyrido[3,4-b]indol-1-yl)-3-fluorophenyl)-3-azaspiro[5.5]undecan-3-yl)-2-oxoethyl)-2-(2,6-dioxopiperidin-3-yl)-6,7-dihydropyrrolo[3,4-f]isoindole-1,3(2H,5H)-dione]",C (“C”: >100 nM)
6,"C[C@@H]1Cc2c([nH]c3ccccc23)[C@@H](c2c(F)cc(C3CCC4(CC3)CCN(C(=O)CN3Cc5cc6c(cc5C3)C(=O)N(C3CCC(=O)NC3=O)C6=O)CC4)cc2F)N1CC(F)F (stereo partly drawn) [Compound B244, 6-(2-(9-(4-((1R,3R)-2-(2,2-difluoroethyl)-3-methyl-2,3,4,9-tetrahydro-1H-pyrido[3,4-b]indol-1-yl)-3,5-difluorophenyl)-3-azaspiro[5.5]undecan-3-yl)-2-oxoethyl)-2-(2,6-dioxopiperidin-3-yl)-6,7-dihydropyrrolo[3,4-f]isoindole-1,3(2H,5H)-dione]",C (“C”: >100 nM)
7,"C[C@@H]1Cc2c([nH]c3ccccc23)[C@@H](c2ccc(C3=CCC(C(=O)N4CCC(N5Cc6cc7c(cc6C5)C(=O)N(C5CCC(=O)NC5=O)C7=O)CC4)CC3)cc2F)N1CC(C)(C)F (stereo partly drawn) [Compound B245, 2-(2,6-dioxopiperidin-3-yl)-6-(1-(3′-fluoro-4′-((1R,3R)-2-(2-fluoro-2-methylpropyl)-3-methyl-2,3,4,9-tetrahydro-1H-pyrido[3,4-b]indol-1-yl)-2,3,4,5-tetrahydro-[1,1′-biphenyl]-4-carbonyl)piperidin-4-yl)-6,7-dihydropyrrolo[3,4-f]isoindole-1,3(2H,5H)-dione]",B (“B”: 10-100 nM)
8,"C[C@@H]1Cc2c([nH]c3ccccc23)[C@@H](c2ccc(C3=CCC(C(=O)N4CCC(N5Cc6cc7c(cc6C5)C(=O)N(C5CCC(=O)NC5=O)C7=O)CC4)CC3)cc2F)N1CC(C)(F)F (stereo partly drawn) [Compound B246, 6-(1-(4′-((1R,3R)-2-(2,2-difluoropropyl)-3-methyl-2,3,4,9-tetrahydro-1H-pyrido[3,4-b]indol-1-yl)-3′-fluoro-2,3,4,5-tetrahydro-[1,1′-biphenyl]-4-carbonyl)piperidin-4-yl)-2-(2,6-dioxopiperidin-3-yl)-6,7-dihydropyrrolo[3,4-f]isoindole-1,3(2H,5H)-dione]",C (“C”: >100 nM)
9,"C[C@@H]1Cc2c([nH]c3ccccc23)[C@@H](c2ncc(C3=CCC(C(=O)N4CCC(N5Cc6cc7c(cc6C5)C(=O)N(C5CCC(=O)NC5=O)C7=O)CC4)CC3)cc2F)N1CC(C)(F)F (stereo partly drawn) [Compound B247, 6-(1-(4-(6-((1S,3R)-2-(2,2-difluoropropyl)-3-methyl-2,3,4,9-tetrahydro-1H-pyrido[3,4-b]indol-1-yl)-5-fluoropyridin-3-yl)cyclohex-3-ene-1-carbonyl)piperidin-4-yl)-2-(2,6-dioxopiperidin-3-yl)-6,7-dihydropyrrolo[3,4-f]isoindole-1,3(2H,5H)-dione]",C (“C”: >100 nM)
10,"C[C@@H]1Cc2c([nH]c3ccccc23)[C@@H](c2ncc(C3=CCC(C(=O)N4CCC(N5Cc6cc7c(cc6C5)C(=O)N(C5CCC(=O)NC5=O)C7=O)CC4)CC3)cc2F)N1CC(C)(C)F (stereo partly drawn) [Compound B248, 2-(2,6-dioxopiperidin-3-yl)-6-(1-(4-(5-fluoro-6-((1S,3R)-2-(2-fluoro-2-methylpropyl)-3-methyl-2,3,4,9-tetrahydro-1H-pyrido[3,4-b]indol-1-yl)pyridin-3-yl)cyclohex-3-ene-1-carbonyl)piperidin-4-yl)-6,7-dihydropyrrolo[3,4-f]isoindole-1,3(2H,5H)-dione]",C (“C”: >100 nM)
11,"C[C@@H]1Cc2c([nH]c3ccccc23)[C@@H](c2c(F)cc(C3=CCC(C(=O)N4CCC(N5Cc6cc7c(cc6C5)C(=O)N(C5CCC(=O)NC5=O)C7=O)CC4)CC3)cc2F)N1CC1(F)CC1 (stereo partly drawn) [Compound B249, 6-(1-(3′,5′-difluoro-4′-((1R,3R)-2-((1-fluorocyclopropyl)methyl)-3-methyl-2,3,4,9-tetrahydro-1H-pyrido[3,4-b]indol-1-yl)-2,3,4,5-tetrahydro-[1,1′-biphenyl]-4-carbonyl)piperidin-4-yl)-2-(2,6-dioxopiperidin-3-yl)-6,7-dihydropyrrolo[3,4-f]isoindole-1,3(2H,5H)-dione]",C (“C”: >100 nM)
